Reference: patent US8476275B2, “N-[piperazinyl hetaryl]arylsufonamide compounds with affinity for the dopamine D3 receptor” (Abbott GmbH & Co. KG, priority 2003, dated 2013)

Key:
[1] = target: T1, human dopamine D3 receptors (Homo sapiens, UniProt P35462); experiment: Dopamine D3 receptor binding, displacement of [125I]-iodosulpride; details: membranes of HEK-293 cells stably expressing human D3 receptor; 0.1 nM [125I]-iodosulpride; 25° C., 60 minutes
T1 construct: expressed in transfected cells
Description: (§1) The substance to be tested was either dissolved in methanol/Chremophor® (BASF-AG) or in dimethyl sulfoxide and then diluted with water to the desired concentration.
(§2) Each assay mixture was run in triplicate.
The incubation buffer contained 50 mM tris, 120 mM NaCl, 5 mM KCl, 2 mM CaCl2, 2 mM MgCl2 and 0.1% bovine serum albumin, 10 μM quinolone and 0.1% ascorbic acid (prepared fresh daily). The buffer was adjusted to pH 7.4 with HCl.
(§3) Measurement and Analysis:
(§4) After having been incubated at 25° C. for 60 minutes, the assay mixtures were filtered through a Whatman GF/B glass fiber filter under vacuum using a cell collecting device. The filters were transferred to scintillation viols using a filter transfer system. After 4 ml of Ultima Gold® (Packard) have been added, the samples were shaken for one hour and the radioactivity was then counted in a Beta-Counter (Packard, Tricarb 2000 or 2200CA). The cpm values were converted into dpm using a standard quench series and the program belonging to the instrument.
(§5) The inhibition curves were analyzed by means of iterative nonlinear regression analysis using the Statistical Analysis System (SAS) which is similar to the “LIGAND” program described by Munson and Rodbard.

[2] = target: T2, human dopamine D2L receptors (long isoform) (Homo sapiens, UniProt P14416); experiment: Dopamine D2L receptor binding, displacement of [125I] iodospiperone; details: ratio, HEK-293 membranes, 0.01 nM [125I] iodospiperone
T2 construct: expressed in transfected cells
Description: as §1, §2
The incubation buffer contained 50 mM tris, 120 mM NaCl, 5 mM KCl, 2 mM CaCl2, 2 mM MgCl2 and 0.1% bovine serum albumin. The buffer was adjusted to pH 7.4 with HCl.
as §3, §4, §5

T1 sequence (P35462 whole entry): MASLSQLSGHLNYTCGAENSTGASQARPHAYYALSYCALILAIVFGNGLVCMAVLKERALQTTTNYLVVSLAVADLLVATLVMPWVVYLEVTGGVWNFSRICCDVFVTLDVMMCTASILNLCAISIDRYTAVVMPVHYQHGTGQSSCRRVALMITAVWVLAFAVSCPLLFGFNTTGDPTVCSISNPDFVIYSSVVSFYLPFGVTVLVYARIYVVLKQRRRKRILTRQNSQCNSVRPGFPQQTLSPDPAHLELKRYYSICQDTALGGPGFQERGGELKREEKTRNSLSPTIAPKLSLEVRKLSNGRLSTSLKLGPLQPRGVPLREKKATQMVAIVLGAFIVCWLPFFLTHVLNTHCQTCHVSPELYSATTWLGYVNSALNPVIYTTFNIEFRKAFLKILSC
T2 sequence (P14416 whole entry, canonical isoform): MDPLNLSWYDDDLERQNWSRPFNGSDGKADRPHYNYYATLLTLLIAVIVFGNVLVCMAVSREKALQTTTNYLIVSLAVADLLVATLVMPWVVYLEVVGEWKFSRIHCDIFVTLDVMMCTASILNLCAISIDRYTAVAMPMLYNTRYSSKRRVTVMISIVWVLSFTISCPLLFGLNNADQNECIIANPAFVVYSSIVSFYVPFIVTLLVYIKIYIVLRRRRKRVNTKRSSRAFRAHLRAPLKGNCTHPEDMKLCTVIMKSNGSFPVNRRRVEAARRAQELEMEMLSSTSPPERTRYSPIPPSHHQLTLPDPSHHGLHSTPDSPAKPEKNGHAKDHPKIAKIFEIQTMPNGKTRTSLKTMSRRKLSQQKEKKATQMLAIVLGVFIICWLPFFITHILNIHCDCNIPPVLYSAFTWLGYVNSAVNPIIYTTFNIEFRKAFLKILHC

## N-[2-(4-Allylpiperazin-1-yl)pyridin-5-yl]-4-(N-pyrrolidinyl)benzene-sulfonamide fumarate [Example 42]
[1]
  Ki: 5.3 nM
[2]
  Selectivity vs. D2L: 33
